In patent publication US8765728B2, “[1,5]-diazocin derivatives” (MelliTech, priority 2009, dated 2014):

Test system: Min6 cell
Test: Insulin secretion response of beta cell line to formula I compounds (insulin ELISA)
Assay type: cell-based
Settings: rank according to % increase versus control at most effective dose
Description: The secretory responses of beta cell lines to glucose were tested as described in Merglen et al. Endocrinology, (2004) 145(2):667-78.
Briefly, after incubation with compounds from formula I or control vehicle, cells were maintained for 2 hours in glucose-free culture medium. The cells were then washed twice and preincubated for 30 minutes at 37° C. in glucose-free Krebs-Ringer bicarbonate HEPES buffer (KRBH: 135 mM NaCl, 3.6 mM KCl, 5 mM NaHCO3, 0.5 mM NaH2PO4, 0.5 mM MgCl2, 1.5 mM CaCl2, and 10 mM HEPES, pH 7.4). BSA (0.1%) was added as an insulin carrier. Cells were subsequently washed with glucose-free KRBH and then incubated for 30 minutes at 37° C. in KRBH containing different concentrations of glucose. The reaction was stopped by placing the plates on ice; supernatants were collected to determine insulin secretion and cells were used for intracellular insulin content following acid-ethanol extraction. Insulin was measured by ELISA (Linco) according to the manufacturer's instructions.

| Compound | Insulin secretion (Min6 cell) Range 1 to 5 |
| --- | --- |
| COc1ccc2c(c1)CN(C1CC1)C(=O)CCN2CCc1ccc(Cl)cc1 [Compound 3, 1-(4-chlorophenethyl)-5-cyclopropyl-8-methoxy-2,3,5,6-tetrahydrobenzo[b][1,5]diazocin-4(1H)-one] | 1 (1: 90-110% of control) |
| O=C(CN1CCC(=O)N(C2CC2)Cc2cc(F)ccc21)c1ccc(F)c(F)c1 [Compound 43, 5-cyclopropyl-1-(2-(3,4-difluorophenyl)-2-oxoethyl)-8-fluoro-2,3,5,6-tetrahydrobenzo[b][1,5]diazocin-4(1H)-one] | 2 (2: 110-120% of control) |
| O=C1CCN(CC(O)COc2ccc(F)cc2)c2ccc(F)cc2CN1C1CC1 (stereo not drawn) [Compound 65, 5-cyclopropyl-8-fluoro-1-(3-(4-fluorophenoxy)-2-hydroxypropyl)-2,3,5,6-tetrahydrobenzo[b][1,5]diazocin-4(1H)-one] | 3 (3: 120-140% of control) |
| O=C1CCNc2ccc(F)cc2CN1 [Compound 10, 8-fluoro-2,3,5,6-tetrahydrobenzo[b][1,5]diazocin-4(1H)-one] | 4 (4: 140-170% of control) |
| Cc1cc(C(=O)N2CCC(=O)N(C3CC3)Cc3cc(OC(F)F)ccc32)no1 [Compound 113, 5-cyclopropyl-8-(difluoromethoxy)-1-(5-methylisoxazole-3-carbonyl)-2,3,5,6-tetrahydrobenzo[b][1,5]diazocin-4(1H)-one] | 1 (1: 90-110% of control) |
| COc1ccc2c(c1)CN(C1CC1)C(=O)CCN2C[C@@H](O)CO [Compound 68, (R)-5-cyclopropyl-1-(2,3-dihydroxypropyl)-8-methoxy-2,3,5,6-tetrahydrobenzo[b][1,5]diazocin-4(1H)-one] | 3 (3: 120-140% of control) |
| COc1ccc2c(c1)CN(C1CC1)C(=O)CCN2CC(O)c1ccccc1OC (stereo not drawn) [Compound 26, 5-cyclopropyl-1-(2-hydroxy-2-(2-methoxyphenyl)ethyl)-8-methoxy-2,3,5,6-tetrahydrobenzo[b][1,5]diazocin-4(1H)-one] | 2 (2: 110-120% of control) |
| O=C1CCN(Cc2ccccc2)c2ccc(F)cc2CN1C1CC1 [Compound 72, 1-benzyl-5-cyclopropyl-8-fluoro-2,3,5,6-tetrahydrobenzo[b][1,5]diazocin-4(1H)-one] | 3 (3: 120-140% of control) |
| O=C1CCNc2ccc(OC(F)F)cc2CN1C1CC1 [Compound 108, 5-cyclopropyl-8-(difluoromethoxy)-2,3,5,6-tetrahydrobenzo[b][1,5]diazocin-4(1H)-one] | 2 (2: 110-120% of control) |
| O=C1CCN(CC(O)c2cccc(F)c2)c2ccc3c(c2CN1C1CC1)OCCO3 (stereo not drawn) [Compound 96, 11-cyclopropyl-7-[2-(3-fluorophenyl)-2-hydroxyethyl]-2,3,8,9,11,12-hexahydro[1,4]dioxino[2,3-h][1,5]benzodiazocin-10(7H)-one] | 3 (3: 120-140% of control) |
| COc1ccc(C(=O)CN2CCC(=O)N(C3CC3)Cc3cc(F)ccc32)cc1 [Compound 38, 5-cyclopropyl-8-fluoro-1-(2-(4-methoxyphenyl)-2-oxoethyl)-2,3,5,6-tetrahydrobenzo[b][1,5]diazocin-4(1H)-one] | 1 (1: 90-110% of control) |
| COc1ccc(OCC(O)CN2CCC(=O)N(C3CC3)Cc3cc(OC)ccc32)cc1 (stereo not drawn) [Compound 51, 5-cyclopropyl-1-(2-hydroxy-3-(4-methoxyphenoxy)propyl)-8-methoxy-2,3,5,6-tetrahydrobenzo[b][1,5]diazocin-4(1H)-one] | 2 (2: 110-120% of control) |
| O=C(c1ncoc1-c1ccccc1)N1CCC(=O)N(C2CC2)Cc2cc(OC(F)F)ccc21 [Compound 112, 5-cyclopropyl-8-(difluoromethoxy)-1-(5-phenyloxazole-4-carbonyl)-2,3,5,6-tetrahydrobenzo[b][1,5]diazocin-4(1H)-one] | 1 (1: 90-110% of control) |
| O=C(c1cnccn1)N1CCC(=O)N(C2CC2)Cc2cc(OC(F)F)ccc21 [Compound 116, 5-cyclopropyl-8-(difluoromethoxy)-1-(pyrazine-2-carbonyl)-2,3,5,6-tetrahydrobenzo[b][1,5]diazocin-4(1H)-one] | 2 (2: 110-120% of control) |
| COc1ccc2c(c1)CN(C1CC1)C(=O)CCN2C(=O)c1ccno1 [Compound 84, 5-cyclopropyl-1-(isoxazole-5-carbonyl)-8-methoxy-2,3,5,6-tetrahydrobenzo[b][1,5]diazocin-4(1H)-one] | 1 (1: 90-110% of control) |
| O=C(CN1CCC(=O)N(C2CC2)Cc2cc(Cl)ccc21)c1ccc(Cl)cc1 [Compound 82, 8-chloro-1-(2-(4-chlorophenyl)-2-oxoethyl)-5-cyclopropyl-2,3,5,6-tetrahydrobenzo[b][1,5]diazocin-4(1H)-one] | 1 (1: 90-110% of control) |
| C[C@H](O)CN1CCC(=O)N(C2CC2)Cc2cc(Cl)ccc21 [Compound 147, (S)-8-chloro-5-cyclopropyl-1-(2-hydroxypropyl)-2,3,5,6-tetrahydrobenzo[b][1,5]diazocin-4(1H)-one] | 2 (2: 110-120% of control) |
| COc1ccc2c(c1)CN(C1CC1)C(=O)CCN2CC(O)c1ccc(F)cc1 (stereo not drawn) [Compound 6, 5-cyclopropyl-1-(2-(4-fluorophenyl)-2-hydroxyethyl)-8-methoxy-2,3,5,6-tetrahydrobenzo[b][1,5]diazocin-4(1H)-one] | 3 (3: 120-140% of control) |
| COc1ccc2c(c1)CN(C1CC1)C(=O)CCN2C(=O)c1c(C)noc1C [Compound 100, 5-cyclopropyl-1-(3,5-dimethylisoxazole-4-carbonyl)-8-methoxy-2,3,5,6-tetrahydrobenzo[b][1,5]diazocin-4(1H)-one] | 1 (1: 90-110% of control) |
| O=C(CN1CCC(=O)N(C2CC2)Cc2c1ccc1c2OCCO1)c1ccc(Cl)cc1 [Compound 94, 7-[2-(4-chlorophenyl)-2-oxoethyl]-11-cyclopropyl-2,3,8,9,11,12-hexahydro[1,4]dioxino[2,3-h][1,5]benzodiazocin-10(7H)-one] | 1 (1: 90-110% of control) |
| 5-benzyl-1-(isoxazole-5-carbonyl)-2,3,5,6-tetrahydrobenzo[b][1,5]diazocin-4(1H)-one [Compound 157] | 1 (1: 90-110% of control) |
| COc1ccc2c(c1)CN(C1CC1)C(=O)CCN2CC(O)COc1ccccc1 (stereo not drawn) [Compound 2, 5-cyclopropyl-1-(2-hydroxy-3-phenoxypropyl)-8-methoxy-2,3,5,6-tetrahydrobenzo[b][1,5]diazocin-4(1H)-one] | 3 (3: 120-140% of control) |
| O=C1CCNc2ccc3c(c2CN1C1CC1)OCCO3 [Compound 80, 11-cyclopropyl-2,3,8,9,11,12-hexahydro[1,4]dioxino[2,3-h][1,5]benzodiazocin-10(7H)-one] | 3 (3: 120-140% of control) |
| C=CCOc1c(OC)ccc2c1CN(CC1CC1)C(=O)CCN2C(=O)c1ccno1 [Compound 169, 7-(allyloxy)-5-(cyclopropylmethyl)-1-(isoxazole-5-carbonyl)-8-methoxy-2,3,5,6-tetrahydrobenzo[b][1,5]diazocin-4(1H)-one] | 4 (4: 140-170% of control) |
